Assay results from ChEMBL document CHEMBL1201862, “PubChem BioAssay data set” (2004).
Activity calls are given as the source filed them. For most assays here, no stated cut-off is given here; in the data, actives have a measured EC50 and inactives only a lower limit.

What was measured:
[1] = target: T1, RNA-binding protein pos-1 (Caenorhabditis elegans, UniProt G5EF15); test: inhibitors of POS-1/mex-3 RNA binding, dose response, biochemical, fluorescence polarization (AID 1964);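 further: purified POS-1 fused to maltose binding protein made in E. coli; potency of compounds blocking POS-1 binding to fluorescent RNA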
T1 sequence (G5EF15 whole entry): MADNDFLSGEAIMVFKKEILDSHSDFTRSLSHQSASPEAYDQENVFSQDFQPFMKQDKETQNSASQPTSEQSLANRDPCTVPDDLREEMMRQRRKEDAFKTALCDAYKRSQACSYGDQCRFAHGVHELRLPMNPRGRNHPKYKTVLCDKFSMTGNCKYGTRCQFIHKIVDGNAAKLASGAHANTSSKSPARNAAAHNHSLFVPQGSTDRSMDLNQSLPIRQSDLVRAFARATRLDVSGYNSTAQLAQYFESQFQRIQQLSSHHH

[2] = target: T2, Zinc finger protein mex-5 (Caenorhabditis elegans, UniProt Q9XUB2); test: MEX-5/TCR-2 RNA interaction inhibitors, dose response, biochemical, C. elegans, fluorescence polarization (AID 1960)
T2 sequence (Q9XUB2 whole entry): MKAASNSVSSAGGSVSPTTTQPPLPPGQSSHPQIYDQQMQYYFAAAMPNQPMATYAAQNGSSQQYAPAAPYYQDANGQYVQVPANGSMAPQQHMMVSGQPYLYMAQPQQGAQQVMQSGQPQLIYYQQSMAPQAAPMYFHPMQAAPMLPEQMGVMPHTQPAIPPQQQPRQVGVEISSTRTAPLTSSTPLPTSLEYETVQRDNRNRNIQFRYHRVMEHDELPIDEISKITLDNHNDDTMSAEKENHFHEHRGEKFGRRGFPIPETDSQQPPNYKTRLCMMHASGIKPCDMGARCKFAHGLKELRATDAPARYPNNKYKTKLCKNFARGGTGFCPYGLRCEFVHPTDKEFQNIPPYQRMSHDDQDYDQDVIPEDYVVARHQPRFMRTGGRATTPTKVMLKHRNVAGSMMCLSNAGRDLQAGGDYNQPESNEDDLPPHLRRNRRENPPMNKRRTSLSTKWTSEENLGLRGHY

CHO = test: cytotoxicity in TLR9-MyD88 CHO cells, dose response, cytotoxicity control for TLR9-MyD88 binding inhibitor project, cell-based, luminescence (AID 588339); type: functional, hamster; conditions: Cricetulus griseus;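 further: CHO cells stably coexpressing TLR9 and MyD88 fusions from primary screen; compound exposure lasted 48 hours before viability readout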
Beta Lactamase = Beta Lactamase (Pseudomonas aeruginosa, UniProt Q932Y6); test: beta-lactamase reporter inhibitor potency, dose response, artefact control for TLR9-MyD88 binding inhibitor project, BLA reporter cells, FRET fluorescence (AID 588341); type: cell-based;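 further: cell based assay in CHO-K1 cells stably expressing beta-lactamase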
Beta Lactamase, sequence (Q932Y6 whole entry): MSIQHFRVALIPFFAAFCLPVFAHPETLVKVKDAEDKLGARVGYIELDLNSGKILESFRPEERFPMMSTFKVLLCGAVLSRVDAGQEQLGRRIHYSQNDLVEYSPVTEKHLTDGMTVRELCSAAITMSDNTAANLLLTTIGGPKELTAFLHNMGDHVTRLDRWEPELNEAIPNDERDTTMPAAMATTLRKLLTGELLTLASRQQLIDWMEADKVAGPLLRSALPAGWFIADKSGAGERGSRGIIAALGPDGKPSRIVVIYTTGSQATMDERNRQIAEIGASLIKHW

[3] = target: T3, Corticotropin-releasing factor receptor 2/Corticotropin-releasing factor-binding protein (Homo sapiens, UniProt P24387+Q13324); test: activators of CRF receptor 2 with binding protein – uHTS hits, confirmation (AID 602473); type: functional; conditions: read-out: EC50_Mean
T3 sequence (Q13324 whole entry): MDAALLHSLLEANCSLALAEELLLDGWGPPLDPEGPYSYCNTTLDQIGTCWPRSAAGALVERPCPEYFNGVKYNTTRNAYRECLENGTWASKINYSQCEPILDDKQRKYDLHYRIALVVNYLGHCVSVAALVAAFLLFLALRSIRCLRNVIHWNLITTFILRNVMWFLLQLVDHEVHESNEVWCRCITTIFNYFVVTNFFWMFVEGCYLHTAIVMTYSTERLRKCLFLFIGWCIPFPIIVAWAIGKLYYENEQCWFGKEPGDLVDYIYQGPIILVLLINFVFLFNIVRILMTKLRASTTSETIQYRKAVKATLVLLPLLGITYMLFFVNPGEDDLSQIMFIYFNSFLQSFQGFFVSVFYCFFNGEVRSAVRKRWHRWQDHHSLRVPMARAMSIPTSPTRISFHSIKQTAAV
T3 sequence (P24387 whole entry): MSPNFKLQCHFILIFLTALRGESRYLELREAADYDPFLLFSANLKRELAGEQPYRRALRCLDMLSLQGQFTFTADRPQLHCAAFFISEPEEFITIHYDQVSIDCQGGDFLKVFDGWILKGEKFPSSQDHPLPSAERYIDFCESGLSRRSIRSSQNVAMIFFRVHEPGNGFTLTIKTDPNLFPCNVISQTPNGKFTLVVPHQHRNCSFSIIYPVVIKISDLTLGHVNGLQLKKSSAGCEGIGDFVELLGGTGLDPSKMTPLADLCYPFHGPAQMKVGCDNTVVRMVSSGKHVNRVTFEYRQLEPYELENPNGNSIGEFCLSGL

Beta-galactosidase = Beta-galactosidase (Escherichia coli, UniProt Q8VNN2); test: PubChem AID 485352; type: functional
Beta-galactosidase, sequence (Q8VNN2 whole entry): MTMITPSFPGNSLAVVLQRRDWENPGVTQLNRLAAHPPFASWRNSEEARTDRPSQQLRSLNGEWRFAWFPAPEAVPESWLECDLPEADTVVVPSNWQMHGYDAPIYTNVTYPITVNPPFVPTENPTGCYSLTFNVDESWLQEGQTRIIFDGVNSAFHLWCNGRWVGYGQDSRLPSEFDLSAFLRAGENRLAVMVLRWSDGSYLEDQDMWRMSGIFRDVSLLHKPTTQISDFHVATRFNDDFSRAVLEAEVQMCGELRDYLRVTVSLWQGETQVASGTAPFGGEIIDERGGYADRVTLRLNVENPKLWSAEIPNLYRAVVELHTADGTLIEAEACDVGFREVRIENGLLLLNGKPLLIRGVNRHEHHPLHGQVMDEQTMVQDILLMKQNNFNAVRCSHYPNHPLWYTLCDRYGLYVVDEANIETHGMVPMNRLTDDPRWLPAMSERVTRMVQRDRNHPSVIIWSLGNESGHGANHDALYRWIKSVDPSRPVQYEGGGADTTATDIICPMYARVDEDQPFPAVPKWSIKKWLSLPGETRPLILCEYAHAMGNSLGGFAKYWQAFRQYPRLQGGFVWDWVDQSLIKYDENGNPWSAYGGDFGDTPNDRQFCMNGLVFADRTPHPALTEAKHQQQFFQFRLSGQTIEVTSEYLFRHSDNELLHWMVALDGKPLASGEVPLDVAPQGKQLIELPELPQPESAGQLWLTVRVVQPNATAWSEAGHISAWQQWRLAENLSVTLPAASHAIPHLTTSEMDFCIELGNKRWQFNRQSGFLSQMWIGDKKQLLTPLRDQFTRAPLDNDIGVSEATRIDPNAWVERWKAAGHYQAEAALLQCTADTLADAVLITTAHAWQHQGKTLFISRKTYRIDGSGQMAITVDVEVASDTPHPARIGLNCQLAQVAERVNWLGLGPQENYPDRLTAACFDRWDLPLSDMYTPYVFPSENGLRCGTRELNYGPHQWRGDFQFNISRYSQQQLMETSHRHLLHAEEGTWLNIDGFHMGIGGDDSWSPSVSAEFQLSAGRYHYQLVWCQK

[4] = target: T4, Type-1 angiotensin II receptor (Homo sapiens, UniProt P30556); test: AT1 receptor antagonists, dose response, selectivity assay for APJ receptor antagonist project, cell-based, uHTS hits (AID 463214); type: functional;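 further: antagonist potency against angiotensin II stimulated AT1 response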
T4 sequence (P30556 whole entry): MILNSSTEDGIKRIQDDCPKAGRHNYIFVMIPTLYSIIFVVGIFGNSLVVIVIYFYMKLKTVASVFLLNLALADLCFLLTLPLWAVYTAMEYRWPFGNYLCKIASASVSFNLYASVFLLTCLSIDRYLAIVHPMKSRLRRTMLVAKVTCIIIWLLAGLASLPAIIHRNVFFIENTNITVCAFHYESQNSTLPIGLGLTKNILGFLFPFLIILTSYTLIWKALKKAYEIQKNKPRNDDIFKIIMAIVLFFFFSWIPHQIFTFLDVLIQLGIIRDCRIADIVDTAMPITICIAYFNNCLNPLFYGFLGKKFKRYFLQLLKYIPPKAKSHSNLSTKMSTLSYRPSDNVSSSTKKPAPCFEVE

Cytochrome P450 1A2 = target: T5, Cytochrome P450 1A2 (Homo sapiens, UniProt P05177);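 further: PubChem cytochrome P450 panel assay, CYP1A2 panel member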
T5 sequence (P05177 whole entry): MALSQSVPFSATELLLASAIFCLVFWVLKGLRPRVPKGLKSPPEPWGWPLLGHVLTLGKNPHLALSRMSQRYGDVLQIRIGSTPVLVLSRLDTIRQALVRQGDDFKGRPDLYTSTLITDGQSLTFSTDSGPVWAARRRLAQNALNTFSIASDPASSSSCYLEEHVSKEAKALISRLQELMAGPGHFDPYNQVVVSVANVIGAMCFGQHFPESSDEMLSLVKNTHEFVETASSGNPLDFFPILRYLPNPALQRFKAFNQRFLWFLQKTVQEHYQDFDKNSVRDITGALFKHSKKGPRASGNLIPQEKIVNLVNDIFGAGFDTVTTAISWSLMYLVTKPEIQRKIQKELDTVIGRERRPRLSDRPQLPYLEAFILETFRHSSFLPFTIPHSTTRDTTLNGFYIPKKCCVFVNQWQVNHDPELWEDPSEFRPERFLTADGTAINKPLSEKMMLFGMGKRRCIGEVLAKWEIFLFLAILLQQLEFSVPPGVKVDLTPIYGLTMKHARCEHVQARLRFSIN

[5] = target: Apoptotic protease-activating factor 1 (Homo sapiens, UniProt O14727); type: functional
Apoptotic protease-activating factor 1, sequence (O14727 whole entry): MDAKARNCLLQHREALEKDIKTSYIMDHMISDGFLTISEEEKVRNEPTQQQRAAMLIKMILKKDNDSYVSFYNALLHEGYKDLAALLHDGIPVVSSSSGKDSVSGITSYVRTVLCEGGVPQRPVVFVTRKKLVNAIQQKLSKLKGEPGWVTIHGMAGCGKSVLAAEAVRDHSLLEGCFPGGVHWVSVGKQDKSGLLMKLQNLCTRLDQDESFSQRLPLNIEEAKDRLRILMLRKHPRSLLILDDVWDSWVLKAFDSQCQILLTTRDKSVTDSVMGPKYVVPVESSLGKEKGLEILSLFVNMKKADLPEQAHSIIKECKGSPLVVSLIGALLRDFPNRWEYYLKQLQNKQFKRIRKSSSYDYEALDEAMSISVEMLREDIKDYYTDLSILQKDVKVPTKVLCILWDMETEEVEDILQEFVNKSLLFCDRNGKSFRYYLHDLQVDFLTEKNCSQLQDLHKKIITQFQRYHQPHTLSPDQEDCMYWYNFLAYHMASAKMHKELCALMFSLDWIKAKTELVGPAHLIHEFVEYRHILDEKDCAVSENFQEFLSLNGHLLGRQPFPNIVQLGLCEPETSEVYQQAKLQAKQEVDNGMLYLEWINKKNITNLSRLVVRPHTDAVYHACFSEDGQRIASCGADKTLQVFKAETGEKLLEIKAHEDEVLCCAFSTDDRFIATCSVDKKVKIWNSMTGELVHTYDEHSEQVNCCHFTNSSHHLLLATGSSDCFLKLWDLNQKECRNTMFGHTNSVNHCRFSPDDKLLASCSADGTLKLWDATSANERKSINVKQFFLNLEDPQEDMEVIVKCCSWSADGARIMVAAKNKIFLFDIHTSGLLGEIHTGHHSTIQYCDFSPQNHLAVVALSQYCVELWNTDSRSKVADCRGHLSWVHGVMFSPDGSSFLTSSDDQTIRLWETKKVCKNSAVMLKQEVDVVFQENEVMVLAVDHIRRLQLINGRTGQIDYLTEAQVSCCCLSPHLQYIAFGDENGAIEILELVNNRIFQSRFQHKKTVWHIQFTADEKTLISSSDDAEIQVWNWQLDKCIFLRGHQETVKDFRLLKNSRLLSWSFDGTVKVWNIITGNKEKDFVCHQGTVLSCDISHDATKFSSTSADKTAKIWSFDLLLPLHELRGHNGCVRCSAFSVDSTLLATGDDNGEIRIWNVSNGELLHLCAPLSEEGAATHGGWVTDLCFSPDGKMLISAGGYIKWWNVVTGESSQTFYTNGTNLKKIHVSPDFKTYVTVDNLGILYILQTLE

HEK293 = test: cells; type: functional, cell-based; conditions: Homo sapiens
[6] = target: T6, Nuclear receptor subfamily 0 group B member 1 (Homo sapiens, UniProt P51843); test: Luminescence-based cell-based high throughput dose response assay for inhibitors of the orphan nuclear receptor subfamily 0, group B, member 1 (DAX1; NR0B1). [Related pubchem assays (depositor defined):AID504766, AID504790]; type: functional
T6 sequence (P51843 whole entry): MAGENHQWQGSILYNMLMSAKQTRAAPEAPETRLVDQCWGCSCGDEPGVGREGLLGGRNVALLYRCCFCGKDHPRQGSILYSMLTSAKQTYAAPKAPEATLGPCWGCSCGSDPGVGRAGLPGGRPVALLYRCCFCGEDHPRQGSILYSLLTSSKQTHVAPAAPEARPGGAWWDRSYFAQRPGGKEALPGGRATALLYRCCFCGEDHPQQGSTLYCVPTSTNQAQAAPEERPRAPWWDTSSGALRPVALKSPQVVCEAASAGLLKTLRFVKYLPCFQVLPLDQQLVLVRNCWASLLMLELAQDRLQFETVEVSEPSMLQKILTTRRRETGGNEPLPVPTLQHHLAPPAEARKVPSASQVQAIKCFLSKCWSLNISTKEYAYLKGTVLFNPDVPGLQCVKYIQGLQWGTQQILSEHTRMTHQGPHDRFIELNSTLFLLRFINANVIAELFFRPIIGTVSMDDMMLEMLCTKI

[7] = target: Oxysterols receptor LXR-beta (Homo sapiens, UniProt P55055); type: functional, cell-based;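 further: Cell-based luminescence dose-response assay of agonist activity at LXR, run as a confirmatory counterscreen to a daf-12 agonist screen; HEK293 cells with Gal4-LXR fusion and GAL4-driven luciferase reporter; agonist potency from rising luciferase signal of a Gal4-LXR reporter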
Oxysterols receptor LXR-beta, sequence (P55055 whole entry, the tested form may be a part): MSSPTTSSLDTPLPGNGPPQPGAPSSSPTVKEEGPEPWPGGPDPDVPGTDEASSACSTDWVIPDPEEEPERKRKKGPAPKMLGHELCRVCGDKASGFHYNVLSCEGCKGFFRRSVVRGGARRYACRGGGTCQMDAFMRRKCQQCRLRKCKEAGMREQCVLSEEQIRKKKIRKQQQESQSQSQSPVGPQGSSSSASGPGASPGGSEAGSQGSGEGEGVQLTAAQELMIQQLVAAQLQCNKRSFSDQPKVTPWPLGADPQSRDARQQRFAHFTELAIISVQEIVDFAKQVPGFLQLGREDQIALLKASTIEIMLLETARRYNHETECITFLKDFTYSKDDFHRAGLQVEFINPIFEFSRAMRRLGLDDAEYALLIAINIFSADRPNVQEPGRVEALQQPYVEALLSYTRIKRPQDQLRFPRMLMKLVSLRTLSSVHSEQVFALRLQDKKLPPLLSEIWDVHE

[8] = NIH-3T3 fibroblast cytotoxicity, dose response, cytotoxicity control, cell-based, fluorescence, Alamar Blue, secondary assay (AID 2327); type: functional;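 further: NIH-3T3 mouse fibroblasts cultured with fluconazole at 8 µg/mL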
[9] = tested on: Streptococcus sp. 'group A'; test: growth inhibition of control SK(-) GAS strain, dose response, counter-screen for streptokinase expression inhibitor project, luminescence, kanamycin, BacTiterGlo, confirmation (AID 1900); type: functional, organism-based
Streptokinase A = target: T7, Streptokinase A (Streptococcus pyogenes serotype M1, UniProt P10520); test: S. pyogenes streptokinase expression inhibitors, potency, dose response, plasminogen activation absorbance, OD405 (AID 1914); type: functional, Streptococcus pyogenes M1 GAS;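 further: secreted streptokinase activity via plasminogen activation per viability signal from cell pellet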
T7 sequence (P10520 whole entry): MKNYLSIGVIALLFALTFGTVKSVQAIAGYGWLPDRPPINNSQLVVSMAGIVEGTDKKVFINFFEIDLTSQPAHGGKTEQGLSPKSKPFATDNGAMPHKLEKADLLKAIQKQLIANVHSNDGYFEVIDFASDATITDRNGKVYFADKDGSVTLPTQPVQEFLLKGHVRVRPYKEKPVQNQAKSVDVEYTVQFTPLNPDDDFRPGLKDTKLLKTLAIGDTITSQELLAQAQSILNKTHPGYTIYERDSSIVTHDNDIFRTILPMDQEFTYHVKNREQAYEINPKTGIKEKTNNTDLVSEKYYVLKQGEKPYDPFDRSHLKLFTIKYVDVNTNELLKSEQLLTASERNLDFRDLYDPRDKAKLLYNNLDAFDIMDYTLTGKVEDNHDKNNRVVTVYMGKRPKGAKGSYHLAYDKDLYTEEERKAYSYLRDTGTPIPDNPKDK

[10] = C. albicans growth with fluconazole, confirmation, fluorescence, retest (AID 2467); type: functional, cell-based
[11] = inhibitors of intracellular T. cruzi replication, confirmation, NIH3T3 host cells, beta-gal luminescence (AID 2044); type: functional, cell-based;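 further: intracellular parasites grown in NIH/3T3 mouse fibroblasts as host cells; luminescent beta-galactosidase reporter signal from transgenic T. cruzi replicating inside host cells; inhibitors lower the luminescence signal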
[12] = target: Serine/threonine-protein phosphatase (Candida dubliniensis (strain CD36 / CBS 7987 / NCPF 3949 / NRRLY-17841) (Yeast), UniProt B9W6M3); test: calcineurin pathway inhibitors in yeast reporter, dose response, S. cerevisiae, CDRE-lacZ, luminescence, secondary (AID 2388); type: functional, cell-based;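 further: yeast reporter cells carrying a calcineurin-responsive lacZ construct stimulated with calcium chloride; luminescent beta-galactosidase reporter signal in whole cells rather than isolated phosphatase activity; potency for inhibition where a drop in reporter signal means calcineurin blockade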
Serine/threonine-protein phosphatase, sequence (B9W6M3 whole entry): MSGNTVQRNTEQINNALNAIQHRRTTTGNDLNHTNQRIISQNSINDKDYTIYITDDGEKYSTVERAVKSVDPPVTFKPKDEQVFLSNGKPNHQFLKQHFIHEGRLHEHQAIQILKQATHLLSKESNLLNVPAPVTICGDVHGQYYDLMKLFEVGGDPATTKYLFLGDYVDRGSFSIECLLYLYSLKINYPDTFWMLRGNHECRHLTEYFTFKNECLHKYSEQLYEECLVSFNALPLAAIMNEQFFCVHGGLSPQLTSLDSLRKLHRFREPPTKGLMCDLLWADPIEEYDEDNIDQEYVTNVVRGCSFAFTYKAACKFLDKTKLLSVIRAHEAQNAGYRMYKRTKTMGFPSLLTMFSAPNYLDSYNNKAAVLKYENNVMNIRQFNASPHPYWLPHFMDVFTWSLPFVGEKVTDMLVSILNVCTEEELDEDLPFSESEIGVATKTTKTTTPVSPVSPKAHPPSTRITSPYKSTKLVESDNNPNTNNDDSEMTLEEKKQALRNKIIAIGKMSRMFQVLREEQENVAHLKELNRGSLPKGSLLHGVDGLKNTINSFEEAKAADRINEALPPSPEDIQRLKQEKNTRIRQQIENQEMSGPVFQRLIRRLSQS

[13] = cytotoxicity toward NIH3T3 fibroblasts, dose response, counter-screen, cell-based, ATP luminescence, mouse fibroblasts (AID 2010); type: functional;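 further: cells exposed to compound for about 90 hours before reading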
Streptococcus = test: Group A Streptococcus viability loss, dose response, counter-screen for streptokinase expression inhibitor project, luminescence, BacTiterGlo (AID 1915); type: functional, organism-based;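 further: potency for reduction of bacterial viability or growth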
INS1 = test: beta cell apoptosis inhibitors, cytokine rescue, dose response, luminescence, retest (AID 449756); type: functional, cell-based; conditions: Rattus norvegicus;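 further: cell death triggered by IL-1 beta plus TNF-alpha plus IFN-gamma mixture; protective hits raise ATP signal compared with cytokine alone wells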
[14] = target: ATP-dependent molecular chaperone HSP82 (Candida albicans (strain WO-1) (Yeast), UniProt C4YTQ8); test: loss of DOC-induced GRE-beta-galactosidase reporter signal, dose response, Hsp90 inhibitor project, S. cerevisiae, luminescence (AID 2400); type: functional, cell-based;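 further: beta-galactosidase luminescence from glucocorticoid response element reporter as proxy for Hsp90 function; inhibitor potency where signal loss means Hsp90 inhibition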
ATP-dependent molecular chaperone HSP82, sequence (C4YTQ8 whole entry): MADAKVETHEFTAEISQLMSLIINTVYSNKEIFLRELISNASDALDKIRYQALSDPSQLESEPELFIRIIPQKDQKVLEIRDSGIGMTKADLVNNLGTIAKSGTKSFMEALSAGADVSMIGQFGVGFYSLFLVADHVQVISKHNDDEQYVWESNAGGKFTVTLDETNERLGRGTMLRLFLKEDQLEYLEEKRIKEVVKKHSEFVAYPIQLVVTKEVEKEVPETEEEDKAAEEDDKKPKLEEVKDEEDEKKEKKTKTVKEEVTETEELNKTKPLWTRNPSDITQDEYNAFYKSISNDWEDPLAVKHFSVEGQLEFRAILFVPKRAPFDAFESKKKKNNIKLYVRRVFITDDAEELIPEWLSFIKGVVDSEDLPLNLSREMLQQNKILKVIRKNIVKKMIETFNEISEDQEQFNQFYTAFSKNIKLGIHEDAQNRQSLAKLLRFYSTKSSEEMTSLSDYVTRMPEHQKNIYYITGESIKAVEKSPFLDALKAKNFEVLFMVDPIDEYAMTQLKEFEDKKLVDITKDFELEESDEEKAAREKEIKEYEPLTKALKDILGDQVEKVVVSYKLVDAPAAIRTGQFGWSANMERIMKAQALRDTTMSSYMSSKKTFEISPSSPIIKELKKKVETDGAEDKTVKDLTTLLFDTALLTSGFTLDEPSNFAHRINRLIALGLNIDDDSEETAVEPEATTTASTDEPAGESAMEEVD

COc1ccc(C(=O)c2sc3nc(C)cc(-c4cccs4)c3c2N)cc1OC
EC50 [1]: 21.2 µM (active)
EC50 [2]: 22.6 µM (active)
IC50 (CHO): 50.2 µM (inactive)
IC50 (Beta Lactamase): 8.85 µM (active)
EC50 [3]: 8.12 µM (active)

Cc1ccc(C(=O)COC(=O)CNC(=O)Cc2ccccc2)cc1[N+](=O)[O-]
EC50 (Beta-galactosidase): > 40 µM (inactive)
IC50 [4]: > 40 µM (not active)
AC50 (Cytochrome P450 1A2): 25.1 µM (inconclusive)

O=C(O)c1cccc(NC2=C(N3CCOCC3)C(=O)c3ccccc3C2=O)c1
IC50 [5]: 14.8 µM (active)

Cc1nc2c(ncn2-c2ccccc2)c(=O)n1NC(=O)CN1CCCC1
IC50 (HEK293): > 67.5 µM (inactive)
IC50 [6]: > 67.5 µM (inactive)

Oc1ccccc1-c1cc(-c2ccc(F)cc2)[nH]n1
IC50 (HEK293): > 67.5 µM (inactive)
IC50 [6]: > 67.5 µM (inactive)
EC50 [7]: > 67.6 µM (inactive)
EC50 (cells): > 67.6 µM (inactive)

COC(=O)c1ccc(NCC(=O)c2ccccc2)cc1
EC50 (Beta-galactosidase): > 40 µM (inactive)
IC50 [4]: 13.7 µM (active)

Nc1nonc1-n1nnc(C(=O)N/N=C/c2cc(Br)ccc2O)c1CNc1ccccc1
EC50 [8]: 43.8 µM (inconclusive)
EC50 [9]: 0.392 µM (active)
EC50 (Streptokinase A): > 150 µM (not active)
EC50 [10]: 0.178 µM (active)
EC50 [11]: 1.84 µM (active)
EC50 [12]: > 180 µM (inactive)
EC50 [13]: 5.03 µM (active)
EC50 (Streptococcus): 3.23 µM (active)
AC50 (INS1): 2.52 µM (active)
EC50 [14]: 22.6 µM (active)
